Source: patent US6319902A, “Peptide derivatives having thiazolyl-alanine residue” (Shionogi & Co., Ltd., priority 1999, dated 2001)

Assays:
Assay type in all cases: in vivo
[1] = Change of blood glucose levels after administration of the test compounds to rats; conditions: for blood glucose level as a percentage compared to the baseline level (vehicle-treated rats = 100%): 50 μmol/kg intravenously
[2] = system: Reserpine-induced hypothermia mice; test: Anti-reserpine action after intravenous and intracerebroventicular administration of test compounds; conditions: for Dose which can increase the average of body temperatures at 1° C. for 180 min in reserpine-induced hypothermia mice, administered intracerebroventicularly: intracerebroventicular, calculated from AUC for 180 min after 0.21 μmol/kg
Description: Anti Recerpine Action After Intravenous and Intracerebroventicular Administration of Test Compounds
Recerpine-induced hypothermia mice (ddY, male) were prepared by the administration of reserpine (3 mg/kg) at 18 hours before test compounds administration. Mice with their body temperature about 25° C. were used in the experiment. Test compounds were solubilized in saline and 0.1 ml (1 μmol/kg) of them were administered intravenously and 0.005 ml (0.21 μmol/kg) of them were administered intracerebroventicularly, respectively. After the administration, rectal temperature was measured at 30, 60, 120, and 180 min. The area under curve (AUC) of the body temperature-time profile was calculated by the general trapezoidal method. In the control experiment, vehicle (saline) was administered to mice intravenously or intracerebroventicularly and the rectal temperature was measured by the same protocol. The effective dose, which can increase the average of body temperatures at 1° C. for 180 min in reserpine-induced hypothermia mice after intravenous or intracerebroventicular administration of the test compounds, is calculated by the following equation: [formula]
Effective dose: Dose which can increase the average of body temperatures at 1° C. for 180 min in reserpine-induced hypothermia mice.
AUC (test compounds): The area under curve (AUC) of the body temperature-time profile for 180 min after intravenous or intracerebroventicular administration of test, compounds was calculated by the general trapezoidal method.
AUC (vehicle): The area under curve (AUC) of the body temperature-time profile for 180 min after intravenous or intracerebroventicular administration of saline was calculated by the general trapezoidal method.

[3] = system: Reserpine-induced hypothermia mice; test: Anti-reserpine action after oral administration of test compounds; conditions: calculated from AUC of body temperature-time profile for 420 min after 10 μmol/kg
Description: Anti-recerpine Action After Oral Administration of Test Compounds
Reserpine-induced hypothemia mice (ddY, male, body weight: 30 to 40 g) were prepared by the subcutaneous administration of reserpine in back side of the […] (3 mg/kg) at 18 hours before test compounds administration. Mice with their body temperature about 25° C. were used in the experiment. Test compounds were solubilized in saline and 0.2 ml (10 μmol/kg) of them were administered by sonde for oral administration. After the administration, rectal temperature was measured at, 30, 60, 120, 180, 240, 300, and […]. The area under curve (AUC) of the body temperature-time profile was calculated by the general trapezoidal method. In the control experiment, vehicle (saline) was administered to mice and the rectal temperature was measured by the same protocol. The effective dose, which can increase the average of body temperature at 1° C. for 420 min in reserpine-induced hypothermia mice after oral administration of the test compounds, is calculated by the following equation: [formula]
Effective dose: Dose which can increase the average of body temperatures at 1° C. for 420 min in reserpine-induced hypothermia mice.
AUC (test compounds): The area under curve (AUC) of the body temperature-time profile for 420 min after oral administration of test compounds was calculated by the general trapezoidal method. […]

blood glucose level as a percentage compared to the baseline level (vehicle-treated rats = 100%) ([1]; Time 0 min) [%]	blood glucose level as a percentage compared to the baseline level (vehicle-treated rats = 100%) ([1]; Time 5 min) [%]	blood glucose level as a percentage compared to the baseline level (vehicle-treated rats = 100%) ([1]; Time 15 min) [%]	blood glucose level as a percentage compared to the baseline level (vehicle-treated rats = 100%) ([1]; Time 30 min) [%]	blood glucose level as a percentage compared to the baseline level (vehicle-treated rats = 100%) ([1]; Time 60 min) [%]	blood glucose level as a percentage compared to the baseline level (vehicle-treated rats = 100%) ([1]; Time 120 min) [%]	blood glucose level as a percentage compared to the baseline level (vehicle-treated rats = 100%) ([1]; Time 180 min) [%]	blood glucose level as a percentage compared to the baseline level (vehicle-treated rats = 100%) ([1]; Time 240 min) [%]	blood glucose level as a percentage compared to the baseline level (vehicle-treated rats = 100%) ([1]; Time 300 min) [%]	blood glucose level as a percentage compared to the baseline level (vehicle-treated rats = 100%) ([1]; Time 360 min) [%]	blood glucose level as a percentage compared to the baseline level (vehicle-treated rats = 100%) ([1]; Time 420 min) [%]	blood glucose level as a percentage compared to the baseline level (vehicle-treated rats = 100%) ([1]; Time 480 min) [%]	SMILES	Dose which can increase the average of body temperatures at 1° C. for 180 min in reserpine-induced hypothermia mice, administered intracerebroventicularly [2] [µmol/kg]	acute rise of the blood glucose level and fall by the rebound after administration ([1]; result in words)	Dose which can increase the average of body temperatures at 1° C. for 180 min in reserpine-induced hypothermia mice, administered intravenously ([2]; intravenous, calculated from AUC for 180 min after 1 μmol/kg) [µmol/kg]	Dose which can increase the average of body temperatures at 1° C. for 420 min in reserpine-induced hypothermia mice by oral [3] [µmol/kg]
107.7	119.9	104.3	109.1	112.1	126.5	105.3	110.9	104.0	100.4	102.6	111.8	C[C@H]1OC(=O)N[C@H]1C(=O)N[C@@H](Cc1cscn1)C(=O)N1CCC[C@H]1C(N)=O (mixture of isomers) [Compound I-10, cis-L-5-methyl-2-oxo-oxazolidine-4-yl-carbonyl-3-(4-thiazolyl)-L-alanyl-L-prolineamide]	0.025			
116.3	114.6	123.3	137.9	153.5	139.1	119.1	112.6	113.2	103.5	102.6	97.1	NC(=O)[C@@H]1CCCN1C(=O)[C@H](Cc1cnc[nH]1)NC(=O)[C@@H]1CCC(=O)N1 [TRH, L-pyroglutamyl-L-histidyl-L-prolineamide]	0.033	acutely raises up the blood glucose level	9.84	42.68
